ChEMBL document CHEMBL5143521, “Identification of a selective BRD4 PROTAC with potent antiproliferative effects in AR-positive prostate cancer based on a dual BET/PLK1 inhibitor” (Eur J Med Chem, 2022)
Calls of active or inactive are those of the source. The calls are words filed in the database; no cut-off is given here.

Assays:
CWR22R [1] = experiment: Induction of cell cycle arrest in AR-positive human 22Rv1 cells assessed as downregulation of cyclin E expression at 100 to 1000 nM measured after 72 hrs by Western blot analysis; type: functional, cell-based; conditions: dose 100-1000 nM
[2] = target: T1, Protein cereblon/Bromodomain-containing protein 4 (Homo sapiens) (UniProt O60885+Q96SW2); experiment: Protac activity at BRD4/CRBN in human VCaP cells assessed as degradation of BRD4 by measuring downregulation of BRD4 expression level at 10 nM incubated for 24 hrs by immunoblotting analysis; type: cell-based
T1 sequence (Q96SW2 whole entry, looked up, other chains not shown): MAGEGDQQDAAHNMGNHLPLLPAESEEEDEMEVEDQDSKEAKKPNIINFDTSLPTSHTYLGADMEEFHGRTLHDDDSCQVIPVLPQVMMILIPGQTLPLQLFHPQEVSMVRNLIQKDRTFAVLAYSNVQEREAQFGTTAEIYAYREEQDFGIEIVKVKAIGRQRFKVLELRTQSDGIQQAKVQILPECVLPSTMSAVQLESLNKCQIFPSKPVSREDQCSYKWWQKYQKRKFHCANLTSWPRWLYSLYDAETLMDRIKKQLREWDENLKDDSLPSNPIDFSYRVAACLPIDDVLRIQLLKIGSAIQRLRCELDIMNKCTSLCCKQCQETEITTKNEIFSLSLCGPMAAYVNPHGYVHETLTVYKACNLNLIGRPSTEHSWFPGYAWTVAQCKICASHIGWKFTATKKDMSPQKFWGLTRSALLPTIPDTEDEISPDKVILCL

VCaP [3] = experiment: Downregulation of PSA gene expression in AR-positive human VCaP cells at 100 nM measured after 24 hrs by RT-qPCR analysis; type: functional, cell-based
VCaP [4] = experiment: Downregulation of BMPR1B gene expression in AR-positive human VCaP cells at 100 nM measured after 24 hrs by RT-qPCR analysis; type: functional, cell-based
CWR22R [5] = experiment: Antiproliferative activity against AR-positive human 22Rv1 cells assessed as reduction in cell viability at 100 to 300 nM incubated for 3 days followed by compound washout and measured after 8 days; type: functional; conditions: dose 100-300 nM, time 3 day
CWR22R [6] = experiment: Downregulation of c-Myc […] expression level in AR-positive human 22Rv1 cells at 1 nM by Western blot analysis; type: functional, cell-based; conditions: time 2-48 hrs, TDE = time-dependent effect
PC-3 = experiment: Antiproliferative activity against AR-negative human castration resistant PC-3 cells assessed as reduction in cell viability measured after 4 days by MTT assay; type: functional, cell-based; conditions: PC-3, 96 h
VCaP [7] = experiment: Downregulation of c-Myc […] expression level in AR-positive human VCaP cells at 1 nM by Western blot analysis; type: functional, cell-based; conditions: time 2-48 hrs, TDE = time-dependent effect
CWR22R [8] = experiment: Induction of cell cycle arrest in AR-positive human 22Rv1 cells assessed as downregulation of CDK6 expression at 100 to 1000 nM measured after 72 hrs by Western blot analysis; type: functional, cell-based; conditions: dose 100-1000 nM
[9] = target: T1, Protein cereblon/Bromodomain-containing protein 4 (Homo sapiens); experiment: Protac activity at BRD4/CRBN in AR-negative human castration resistant DU-145 cells assessed as degradation of BRD4 by measuring downregulation of BRD4 expression level measured after 24 hrs by Western blot analysis; type: cell-based; conditions: dose 1-10000 nM, DDE = dose-dependent effect
CWR22R [10] = experiment: Induction of apoptosis in AR-positive human 22Rv1 cells assessed as increase in early apoptotic cells measured after 72 hrs by Annexin V-FITC/PI staining based flow cytometry method; type: functional, cell-based; conditions: dose 100-1000 nM, DDE = dose-dependent effect
CWR22R [11] = experiment: Downregulation of c-Myc […] expression level in AR-positive human 22Rv1 cells measured after 24 hrs by Western blot analysis; type: functional, cell-based; conditions: dose 1-10000 nM, DDE = dose-dependent effect
[12] = target: Bromodomain-containing protein 4 (Homo sapiens, UniProt O60885); experiment: Inhibition of BRD4 (unknown origin) by alpha-screen assay
VCaP [13] = experiment: Downregulation of AR protein expression in AR-positive human VCaP cells at 100 nM measured after 48 hrs by Western blot analysis; type: functional, cell-based
CWR22R [14] = experiment: Induction of cell cycle arrest in AR-positive human 22Rv1 cells assessed as downregulation of CDK4 expression at 100 to 1000 nM measured after 72 hrs by Western blot analysis; type: functional, cell-based; conditions: dose 100-1000 nM
LNCaP [15] = experiment: Antiproliferative activity against AR-positive harmone sensitive human LNCaP cells assessed as reduction in cell viability at 100 to 300 nM incubated for 3 days followed by compound washout and measured after 8 days; type: functional; conditions: dose 100-300 nM, time 3 day
VCaP [16] = experiment: Downregulation of c-Myc mRNA expression level in AR-positive human VCaP cells at 100 nM measured after 24 hrs by RT-qPCR analysis; type: functional, cell-based
VCaP [17] = experiment: Downregulation of TMPRSS2 gene expression in AR-positive human VCaP cells at 100 nM measured after 24 hrs by RT-qPCR analysis; type: functional, cell-based
VCaP [18] = experiment: Downregulation of c-Myc […] expression level in AR-positive human VCaP cells measured after 24 hrs by Western blot analysis; type: functional, cell-based; conditions: dose 1-10000 nM, DDE = dose-dependent effect
CWR22R [19] = experiment: Induction of cell cycle arrest in AR-positive human 22Rv1 cells assessed as downregulation of cyclin B1 expression at 100 to 1000 nM measured after 72 hrs by Western blot analysis; type: functional, cell-based; conditions: dose 100-1000 nM
CWR22R [20] = experiment: Induction of cell cycle arrest in AR-positive human 22Rv1 cells assessed as accumulation of cells at G0/G1 phase at 100 to 1000 nM measured after 72 hrs by flow cytometry analysis; type: functional, cell-based; conditions: dose 100-1000 nM
VCaP [21] = experiment: Downregulation of FKBP5 gene expression in AR-positive human VCaP cells at 100 nM measured after 24 hrs by RT-qPCR analysis; type: functional, cell-based
CWR22R [22] = experiment: Induction of apoptosis in AR-positive human 22Rv1 cells assessed as upregulation of cleaved PARP level measured after 72 hrs by Annexin V-FITC/PI staining based flow cytometry method; type: functional, cell-based; conditions: dose 100-1000 nM, DDE = dose-dependent effect
CWR22R [23] = experiment: Induction of apoptosis in AR-positive human 22Rv1 cells assessed as increase in late apoptotic cells measured after 72 hrs by Annexin V-FITC/PI staining based flow cytometry method; type: functional, cell-based; conditions: dose 100-1000 nM, DDE = dose-dependent effect
CWR22R [24] = experiment: Antiproliferative activity against AR-positive human 22Rv1 cells assessed as reduction in cell viability measured after 4 days by MTT assay; type: functional, cell-based; conditions: 22Rv1, 96 h
[25] = target: Serine/threonine-protein kinase PLK1 (Homo sapiens, UniProt P53350); experiment: Inhibition of recombinant full length human PLK1 using casein as substrate incubated for 40 mins in presence of [gamma-33P]-ATP by radiometric scintillation counting method
Sequence of Serine/threonine-protein kinase PLK1 (P53350 whole entry): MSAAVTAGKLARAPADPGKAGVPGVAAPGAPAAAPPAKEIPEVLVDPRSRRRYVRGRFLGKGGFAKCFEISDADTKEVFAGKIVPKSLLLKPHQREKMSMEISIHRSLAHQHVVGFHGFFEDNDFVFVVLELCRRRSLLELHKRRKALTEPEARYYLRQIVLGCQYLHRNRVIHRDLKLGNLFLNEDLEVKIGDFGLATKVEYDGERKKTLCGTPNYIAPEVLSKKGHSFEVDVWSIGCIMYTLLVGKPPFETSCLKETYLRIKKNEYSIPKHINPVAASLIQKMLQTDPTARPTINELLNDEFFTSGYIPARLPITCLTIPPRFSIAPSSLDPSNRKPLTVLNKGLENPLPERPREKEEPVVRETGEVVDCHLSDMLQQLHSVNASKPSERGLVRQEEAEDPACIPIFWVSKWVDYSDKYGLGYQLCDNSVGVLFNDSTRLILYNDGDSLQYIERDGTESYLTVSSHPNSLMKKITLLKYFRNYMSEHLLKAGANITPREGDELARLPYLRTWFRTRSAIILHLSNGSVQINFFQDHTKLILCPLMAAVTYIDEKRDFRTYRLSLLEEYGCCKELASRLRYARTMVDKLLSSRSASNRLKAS

[26] = target: T1, Protein cereblon/Bromodomain-containing protein 4 (Homo sapiens); experiment: Protac activity at BRD4/CRBN in AR-positive human VCaP cells assessed as degradation of BRD4 by measuring downregulation of BRD4 expression level at 1 nM by Western blot analysis; type: cell-based; conditions: time 2-48 hrs, TDE = time-dependent effect
MV4-11 = experiment: Antiproliferative activity against human MV4-11 cells assessed as reduction in cell viability measured after 4 days by MTT assay; type: functional, cell-based; conditions: MV4-11, 96 h
VCaP [27] = experiment: Downregulation of ERG gene expression in AR-positive human VCaP cells at 100 nM measured after 24 hrs by RT-qPCR analysis; type: functional, cell-based
VCaP [28] = experiment: Downregulation of PSA protein expression in AR-positive human VCaP cells at 100 nM measured after 48 hrs by Western blot analysis; type: functional, cell-based
CWR22R [29] = experiment: Induction of apoptosis in AR-positive human 22Rv1 cells assessed as upregulation of cleaved caspase-3 level measured after 72 hrs by Annexin V-FITC/PI staining based flow cytometry method; type: functional, cell-based; conditions: dose 100-1000 nM, DDE = dose-dependent effect
[30] = target: T1, Protein cereblon/Bromodomain-containing protein 4 (Homo sapiens); experiment: Protac activity at BRD4/CRBN in AR-positive human VCaP cells assessed as degradation of BRD4 by measuring downregulation of BRD4 expression level measured after 24 hrs by Western blot analysis; type: cell-based; conditions: dose 1-10000 nM, DDE = dose-dependent effect
DU-145 = experiment: Antiproliferative activity against AR-negative human castration resistant DU-145 cells assessed as reduction in cell viability measured after 4 days by MTT assay; type: functional, cell-based; conditions: DU-145, 96 h
LNCaP [31] = experiment: Downregulation of c-Myc […] expression level in AR-positive harmone sensitive human LNCaP cells at 1 nM by Western blot analysis; type: functional, cell-based; conditions: time 2-48 hrs, TDE = time-dependent effect
[32] = target: T1, Protein cereblon/Bromodomain-containing protein 4 (Homo sapiens); experiment: Protac activity at BRD4/CRBN in AR-positive human 22Rv1 cells assessed as degradation of BRD4 by measuring downregulation of BRD4 expression level at 1 nM by Western blot analysis; type: cell-based; conditions: time 2-48 hrs, TDE = time-dependent effect

With `CC[C@@H]1c2nnc(C)n2-c2cnc(Nc3ccc(C(=O)NC4CCN(C(=O)COc5cccc6c5C(=O)N(C5CCC(=O)NC5=O)C6=O)CC4)cc3OC)nc2N1CC1CCCCC1` (stereo not given in full) the Activity (CWR22R [1]) was “Active”, the Activity [2] was “Active” and the Activity (VCaP [3]) was “Active”. The Activity (VCaP [4]) was “Active”, the “inhibition (INH)” value (CWR22R [5]) was 100% and the Activity (CWR22R [6]) was “Tde”. For the same molecule, the IC50 (PC-3) was 2.44 µM, the Activity (VCaP [7]) was “Tde” and the Activity (CWR22R [8]) was “Active”. For the same molecule, the Activity [9] was “Dde”, the Activity (CWR22R [10]) was “Dde” and the Activity (CWR22R [11]) was “Dde”. The IC50 [12] was 0.254 µM, the Activity (VCaP [13]) was “Active” and the Activity (CWR22R [14]) was “Active”. For the same molecule, the “inhibition (INH)” value (LNCaP [15]) was 100%, the Activity (VCaP [16]) was “Active” and the Activity (VCaP [17]) was “Active”. The Activity (VCaP [18]) was “Dde”, the Activity (CWR22R [19]) was “Active” and the Activity (CWR22R [20]) was “Active”. The Activity (VCaP [21]) was “Active”, the Activity (CWR22R [22]) was “Dde” and the Activity (CWR22R [23]) was “Dde”. For the same molecule, the IC50 (CWR22R [24]) was 0.053 µM, the IC50 [25] was 0.985 µM and the Activity [26] was “Tde”. The IC50 (MV4-11) was 0.003 µM, the Activity (VCaP [27]) was “Active” and the Activity (VCaP [28]) was “Active”. For the same molecule, the Activity (CWR22R [29]) was “Dde”, the Activity [30] was “Dde” and the IC50 (DU-145) was 10 µM. For the same molecule, the Activity (LNCaP [31]) was “Tde” and the Activity [32] was “Tde”.
